Results: patent US20060100245A1, “Substituted biphenyl-4-carboxylic acid arylamide analogues” (Neurogen Corporation, priority 2002, published 2006)

biological target: T1, human capsaicin receptor (VR1) (Homo sapiens, UniProt Q8NER1); experiment: Capsaicin receptor binding assay ([3H]RTX competition); settings: read-out: Ki
T1 construct: transfected with the pBK-CMV expression construct encoding the full length human capsaicin receptor; expressed in transfected cells
Description: This Example illustrates the preparation of VR1-transfected cells and membrane preparations for use in binding assays (Example 5) and functional assays (Example 6).
A cDNA encoding full length human capsaicin receptor (SEQ ID NO: 1, 2 or 3 of U.S. Pat. No. 6,482,611) was subcloned in the plasmid pBK-CMV (Stratagene, La Jolla, Calif.) for recombinant expression in mammalian cells.
Human embryonic kidney (HEK293) cells were transfected with the pBK-CMV expression construct encoding the full length human capsaicin receptor using standard methods. The transfected cells were selected for two weeks in media containing G418 ([…]) to obtain a pool of stably transfected cells. Independent clones were isolated from this pool by limiting dilution to obtain clonal stable cell lines for use in subsequent experiments.
For radioligand binding experiments, cells were seeded in T175 cell culture flasks in media without antibiotics and grown to approximately 90% confluency. The flasks were then washed with PBS and harvested in PBS containing 5 mM EDTA. The cells were pelleted by gentle centrifugation and stored at −80° C. until assayed.
Previously frozen cells were disrupted with the aid of a tissue homogenizer in ice-cold HEPES homogenization buffer (5mM KCl 5, 5.8 mM NaCl, 0.75 mM CaCl2, 2 mM MgCl2, 320 mM sucrose, and 10 mM HEPES pH 7.4). Tissue homogenates were first centrifuged for 10 minutes at 1000×g (4° C.) to remove the nuclear fraction and debris, and then the supernatant from the first centrifugation is further centrifuged for 30 minutes at 35,000×g (4° C.) to obtain a partially purified membrane fraction. Membranes were resuspended in the HEPES homogenization buffer prior to the assay. An aliquot of this membrane homogenate is used to determine protein concentration via the Bradford method (BIO-RAD Protein Assay Kit, #500-0001, BIO-RAD, Hercules, Calif.).
This Example illustrates a representative assay of capsaicin receptor binding that may be used to determine the binding affinity of compounds for the capsaicin (VR1) receptor.
Binding studies with [^3H] Resiniferatoxin (RTX) are carried out essentially as described by Szallasi and Blumberg (1992) J. Pharmacol. Exp. Ter. 262: 883-888. In this protocol, non-specific RTX binding is reduced by adding bovine alpha, acid glycoprotein (100 μg per tube) after the binding reaction has been terminated.
[^3H] RTX (37 Ci/mmol) is synthesized by and obtained from the Chemical Synthesis and Analysis Laboratory, National Cancer Institute-Frederick Cancer Research and Development Center, Frederick, Md. [^3H] RTX may also be obtained from commercial vendors (e.g., Amersham Pharmacia Biotech, Inc.; Piscataway, N.J.).
The membrane homogenate of Example 4 is centrifuged as before and resuspended to a protein concentration of 333 μg/ml in homogenization buffer. Binding assay mixtures are set up on ice and contain [^3H]JRTX (specific activity 2200 mCi/ml), 2 μl non-radioactive test compound, 0.25 mg/ml bovine serum albumin (Cohn fraction V), and 5×10^4−1×10^5 VR1-transfected cells. The final volume is adjusted to 500 μl (for competition binding assays) or 1,000 μl (for saturation binding assays) with the ice-cold HEPES homogenization buffer solution (pH 7.4) described above. Non-specific binding is defined as that occurring in the presence of 1 μM non-radioactive RTX (Alexis Corp.; San Diego, Calif.). For saturation binding, [^3H]RTX is added in the concentration range of […], using 1 to 2 dilutions. Typically 11 concentration points are collected per saturation binding curve.
Competition binding assays are performed in the presence of 60 pM [^3H]RTX and various concentrations of test compound. The binding reactions are initiated by transferring the assay mixtures into a 37° C. water bath and are terminated following a 60 minute incubation period by cooling the tubes on ice.

T1 sequence (Q8NER1 whole entry): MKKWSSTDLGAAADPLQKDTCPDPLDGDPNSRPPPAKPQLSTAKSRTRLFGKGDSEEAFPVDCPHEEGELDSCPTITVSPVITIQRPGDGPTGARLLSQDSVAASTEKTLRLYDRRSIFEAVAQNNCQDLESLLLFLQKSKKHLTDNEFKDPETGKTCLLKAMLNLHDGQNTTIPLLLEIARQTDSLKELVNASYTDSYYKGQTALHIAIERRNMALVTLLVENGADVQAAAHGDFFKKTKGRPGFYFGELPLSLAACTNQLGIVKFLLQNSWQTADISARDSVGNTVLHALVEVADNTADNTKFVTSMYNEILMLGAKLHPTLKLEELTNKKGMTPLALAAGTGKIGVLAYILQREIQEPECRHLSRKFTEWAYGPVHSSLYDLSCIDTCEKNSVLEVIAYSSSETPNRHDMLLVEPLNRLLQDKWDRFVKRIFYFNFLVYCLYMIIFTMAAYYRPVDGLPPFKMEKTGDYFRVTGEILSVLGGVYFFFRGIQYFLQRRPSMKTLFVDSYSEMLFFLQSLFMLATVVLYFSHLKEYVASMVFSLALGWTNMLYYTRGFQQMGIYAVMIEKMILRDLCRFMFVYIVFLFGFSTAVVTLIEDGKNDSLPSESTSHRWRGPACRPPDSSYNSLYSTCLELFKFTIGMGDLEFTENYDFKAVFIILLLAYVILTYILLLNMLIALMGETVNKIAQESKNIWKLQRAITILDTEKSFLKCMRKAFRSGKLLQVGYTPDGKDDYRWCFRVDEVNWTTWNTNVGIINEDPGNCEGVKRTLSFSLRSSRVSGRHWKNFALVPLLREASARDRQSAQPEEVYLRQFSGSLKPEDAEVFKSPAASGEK

Structure (SMILES)	Ki
O=C(Nc1ccc(F)cc1)c1ccc(-c2ncccc2F)cc1 [Compound 375, N-(4-Fluoro-phenyl)-4-(3-fluoro-pyridin-2-yl)-benzamide]	< 1000 nM
CC(C)(C)c1ccc(NC(=O)c2ccc(C3CCCCN3)cc2)cc1 (centres unmarked) [Compound 429, N-(4-tert-Butyl-phenyl)-4-piperidin-2-yl-benzamide]	< 1000 nM
Cc1nnc(-c2cccnc2-c2ccc(C(=O)Nc3ccc(C(C)(C)C)cc3)cc2)o1 [Compound 424, N-(4-tert-Butyl-phenyl)-4-[3-(5-methyl-[1,3,4]oxadiazol-2-yl)-pyridin-2-yl]-benzamide]	< 1000 nM
Cc1ccc(NC(=O)c2ccc(-c3cccc(F)c3)nc2)cc1C [Compound 239, N-(3,4-Dimethyl-phenyl)-6-(3-fluoro-phenyl)-nicotinamide]	< 1000 nM
COc1cccc(NC(=O)c2ccc(-c3cccc(OC(F)(F)F)c3)nc2)c1 [Compound 278]	< 1000 nM
CCCc1ccc(NC(=O)c2ccc(-c3ccccc3C)nc2)cc1 [Compound 389, N-(4-Propyl-phenyl)-6-o-tolyl-nicotinamide]	< 1000 nM
CC(C)(C)c1ccc(NC(=O)c2ccc(-c3ccccc3Cl)cc2)cc1 [Compound 15, 2′-Chloro-biphenyl-4-carboxylic acid (4-tert-butyl-phenyl)-amide]	< 1000 nM
Cc1ccc(-c2ccc(C(=O)Nc3ccc4c(c3)CCC4)cn2)cc1C [Compound 109, 6-(3,4-Dimethyl-phenyl)-N-indan-5-yl-nicotinamide]	< 1000 nM
O=C(Nc1ccc2c(c1)CCC2)c1ccc(-c2cccc(OC(F)(F)F)c2)nc1 [Compound 464, N-Indan-5-yl-6-(3-trifluoromethoxy-phenyl)-nicotinamide]	< 1000 nM
Cc1ccc(C)c(-c2ccc(C(=O)Nc3ccc(C(F)(F)F)cc3)cn2)c1 [Compound 56, 6-(2,5-Dimethyl-phenyl)-N-(4-trifluoromethyl-phenyl)-nicotinamide]	< 1000 nM
Cc1nc2cc(NC(=O)c3ccc(-c4ccccc4)nc3)ccc2s1 [Compound 209, N-(2-Methyl-benzothiazol-5-yl)-6-phenyl-nicotinamide]	< 1000 nM
CC(C)(C)c1ccc(NC(=O)c2cnc(-c3ccccc3)c(Cl)c2)cc1 [Compound 436, N-(4-tert-Butyl-phenyl)-5-chloro-6-phenyl-nicotinamide]	< 1000 nM
CC(C)(C)c1ccc(NC(=O)c2ccc(-c3cnc4ccccc4c3)cc2)cc1 [Compound 434, N-(4-tert-Butyl-phenyl)-4-quinolin-3-yl-benzamide]	< 1000 nM
O=C(Nc1ccc2c(c1)CCC2)c1ccc(-c2cccc(F)c2)nc1 [Compound 129, 6-(3-Fluoro-phenyl)-N-indan-5-yl-nicotinamide]	< 1000 nM
CCc1ccc(NC(=O)c2ccc(-c3ccccc3C)nc2)cc1 [Compound 374, N-(4-Ethyl-phenyl)-6-o-tolyl-nicotinamide]	< 1000 nM
O=C(Nc1ccc2c(c1)OCCCO2)c1ccc(-c2cccc(OC(F)(F)F)c2)nc1 [Compound 223, N-(3,4-Dihydro-2H-benzo[b][1,4]dioxepin-7-yl)-6-(3-trifluoromethoxy-phenyl)-nicotinamide]	< 1000 nM
Cc1nc2cc(NC(=O)c3ccc(-c4cccc(C(C)C)c4)nc3)ccc2s1 [Compound 130, 6-(3-Isopropyl-phenyl)-N-(2-methyl-benzothiazol-5-yl)-nicotinamide]	< 1000 nM
Cc1ccc(NC(=O)c2ccc(-c3ccccc3C)nc2)cc1C [Compound 248, N-(3,4-Dimethyl-phenyl)-6-o-tolyl-nicotinamide]	< 1000 nM
Cc1nc2cc(NC(=O)c3ccc(-c4cccc(F)c4)nc3)ccc2s1 [Compound 125]	< 1000 nM

Structure (SMILES)	Ki
CC(C)(C)c1ccc(NC(=O)c2ccc(-c3ccccc3F)nc2)cc1 [Compound 443, N-(4-tert-Butyl-phenyl)-6-(2-fluoro-phenyl)-nicotinamide]	< 1000 nM
COc1cccc(NC(=O)c2ccc(-c3cccc(C)c3)nc2)c1 [Compound 280, N-(3-Methoxy-phenyl)-6-m-tolyl-nicotinamide]	< 1000 nM
Cc1cc(C)cc(-c2ccc(C(=O)Nc3ccc(Br)c(Cl)c3)cn2)c1 [Compound 316, N-(4-Bromo-3-chloro-phenyl)-6-(3,5-dimethyl-phenyl)-nicotinamide]	< 1000 nM
CC(C)c1ccc(NC(=O)c2ccc(-c3cccc(F)c3)nc2)cc1 [Compound 127, 6-(3-Fluoro-phenyl)-N-(4-isopropyl-phenyl)-nicotinamide]	< 1000 nM
CCOc1cccc(-c2ccc(C(=O)Nc3ccc4c(c3)OCCO4)cn2)c1 [Compound 194, N-(2,3-Dihydro-benzo[1,4]dioxin-6-yl)-6-(3-ethoxy-phenyl)-nicotinamide]	< 1000 nM
CC(C)(O)c1ccc(NC(=O)c2ccc(-c3ncccc3Cl)cc2)cc1 [Compound 29, 4-(3-Chloro-pyridin-2-yl)-N-[4-(1-hydroxy-1-methyl-ethyl)-phenyl]-benzamide]	< 1000 nM
CC(C)(C)c1ccc(NC(=O)c2cnc(-c3ccccc3Cl)cc2O)cc1 [Compound 441, N-(4-tert-Butyl-phenyl)-6-(2-chloro-phenyl)-4-hydroxy-nicotinamide]	< 1000 nM
CC(C)(C)c1ccc(NC(=O)c2ccc(-c3ccccc3Cl)cn2)cc1 [Compound 40, 5-(2-Chloro-phenyl)-pyridine-2-carboxylic acid (4-tert-butyl-phenyl)-amide]	< 1000 nM
CCCCc1ccc(NC(=O)c2ccc(-c3ccccc3C)nc2)cc1 [Compound 343, N-(4-Butyl-phenyl)-6-o-tolyl-nicotinamide]	< 1000 nM
O=C(Nc1ccc(C2CCCC2)cc1)c1ccc(-c2ncccc2F)cc1 [Compound 363, N-(4-Cyclopenyl-phenyl)-4-(3-fluoro-pyridin-2-yl)-benzamide]	< 1000 nM
CC(C)(C)c1ccc(NC(=O)c2ccc(C3CCCCN3S(C)(=O)=O)cc2)cc1 (centres unmarked) [Compound 397, N-(4-tert-Butyl-phenyl)-4-(1-methanesulfonyl-piperidin-2-yl)-benzamide]	< 1000 nM
O=C(Nc1ccccc1)c1ccc(-c2ccccc2Cl)nc1 [Compound 81, 6-(2-Chloro-phenyl)-N-phenyl-nicotinamide]	< 1000 nM
CC(C)(C)c1ccc(NC(=O)c2ccc(-c3ccccc3N(S(C)(=O)=O)S(C)(=O)=O)nc2)cc1 [Compound 451, N-(4-tert-Butyl-phenyl)-6-[2-(N,N-dimethanesulfonyl)amino-phenyl]-nicotinamide]	< 1000 nM
CC(C)(C)c1ccc(NC(=O)c2ccc(-c3ncccc3NS(C)(=O)=O)cc2)cc1 [Compound 413, N-(4-tert-Butyl-phenyl)-4-(3-methanesulfonylamino-pyridin-2-yl)-benzamide]	< 1000 nM
Cc1ccccc1-c1ccc(C(=O)Nc2ccc(C(F)(F)F)cc2)cn1 [Compound 185, 6-o-Tolyl-N-(4-trifluoromethyl-phenyl)-nicotinamide]	< 1000 nM
COc1cccc(-c2ccc(C(=O)Nc3ccc(C)c(C)c3)cn2)c1 [Compound 241, N-(3,4-Dimethyl-phenyl)-6-(3-methoxy-phenyl)-nicotinamide]	< 1000 nM
O=C(Nc1ccc(Cl)cc1)c1ccc(-c2ccccc2F)nc1 [Compound 348, N-(4-Chloro-phenyl)-6-(2-fluoro-phenyl)-nicotinamide]	< 1000 nM
CCCCc1ccc(NC(=O)c2ccc(-c3ncccc3Cl)cc2)cc1 [Compound 332, N-(4-Butyl-phenyl)-4-(3-chloro-pyridin-2-yl)-benzamide]	< 1000 nM
CN1CCCCC1c1ccc(C(=O)Nc2ccc(C(C)(C)C)cc2)cc1 (centres unmarked) [Compound 398, N-(4-tert-Butyl-phenyl)-4-(1-methyl-piperidin-2-yl)-benzamide]	< 1000 nM
